{"source": "patent US20240382610A1", "about": "(priority 2021, published 2024)", "key": {"[1]": {"tested_on": "CD19+ B cells", "assay": "Free CpG activity on CD40 expression by CD19+ B cells in human PBMCs", "assay_type": "cell-based", "details": "PBMC from three donors (D559, D804, D643)", "protocol": "Trima residuals were received from Vitalant and diluted 1:2 with Phosphate Buffered Saline (PBS, Gibco). Diluted blood was split into two tubes and underplayed with 15 mL Ficoll-Paque (GE Healthcare). Tubes were centrifuged for 30 minutes at 400×g. PBMCs were collected from the interface, resuspended and washed in FACS buffer (PBS with 0.5% Bovine Serum Albumin (Gibco)). After one wash, PBMCs were resuspended in Complete RPMI (RPMI+10% FBS).\nPBMCs were immediately plated onto a 96-well format (500K/well) in Complete RPMI. Five-fold serial dilutions were added to the cells from 1 uM to […] of CpG oligonucleotides at 37° C. under 5% CO2 for 48 hours. Cells were pelleted by centrifugation for five minutes at 400×g and stained at 4° C. in Fixable Viability Dye eFluor 780 (Thermo Fisher) diluted 1:4000 in PBS. Cells were centrifuged and stained at 4° C. in FACS buffer for 30 minutes containing FcR Blocking Reagent (Miltenyi Biotec), anti-CD19, anti-CD20, anti-CD40, anti-HLADR and anti-CD80. Cells were centrifuged and washed twice in FACS buffer and fixed in 0.5% paraformaldehyde. Cells were analyzed on Attune NxT Flow Cytometer (Thermo Fisher), with subsequent data analysis by Flowjo 10.7 (Treestar). Dead cells were excluded by gating on the eFluor 780-negative population. B cells were identified as CD19^+CD20^+cells and level of activation marker was assessed by median fluorescent intensity. […]"}, "[2]": {"tested_on": "Ramos-Blue Cells NF-kB/AP-1 Reporter B lymphocytes", "assay": "Ramos NFkb Reporter Assay", "assay_type": "cell-based", "details": "24 h stimulation, OD655"}, "[3]": {"tested_on": "DLD-1 nectin-4 tumor cells", "assay_type": "cell-based, human"}}}
{"substance": "CpG 7-7: \"CpG 7-7 (7-7b; SEQ ID NO:35)\", free CpG oligonucleotide of series 7 (DNA NCGTCGTGTCGTTT; modified_base 1 OTHER; 5-Bromo-2'-deoxyuridine; modified_base 1..4 OTHER; phosphorothioate linkages; modified_base 4..5 OTHER; phosphotriester linker-PEG24-NH2; modified_base 5..9 OTHER; modified_base 9..10 OTHER; phosphorodithioate linkage; modified_base 10..14 OTHER; modified_base 13..14 OTHER; 2'-O-methyl-thymidine; misc_feature 14 3' spacer)", "values": [{"measurement": "activity as observed by CD40 expression", "setting": "[1]", "result": "higher activities"}, {"measurement": "activity in NFkb reporter assay", "setting": "[2]", "result": "significantly higher activity"}, {"measurement": "phagocytosis of DLD-1 nectin-4 tumor cells by macrophages", "setting": "[3]", "result": "did not appear to result in detectable phagocytosis"}]}
